Data taken from patent publication US20210301261A1, “HUMAN LIVER MICROPHYSIOLOGY PLATFORM AND SELF ASSEMBLY LIVER ACINUS MODEL AND METHODS OF THEIR USE” (priority 2014, published 2021).
Entries after “also recorded” stand apart in the source; their conditions may differ. Like-named read-outs stand apart in the source and are kept apart here.

Key:
[1] = tested on: hepatocytes in SALA model; test: Oxidative stress response in biosensor transduced hepatocytes in SALA model; type: cell-based, human; conditions: 0 to 15 hr treatment period
From the text: Image processing at each time point provides kinetic physiological responses is provided in Panel D.

liver [2] = conditions: cited from earlier work
[3] = in vivo; cited from earlier work
liver [4] = conditions: cited from earlier work; for liver injury incidents/million prescriptions: human; for Human/Animal Toxicology (findings in words, wrapped cells): in vivo
SALA model cells = conditions: human
From the text: (§1) Efflux media was collected for measurements of organ model health using assays for lactate dehydrogenase (LDH) release, and albumin, and urea synthesis. LDH is released from cells under conditions of cytotoxic damage. Albumin and urea are secreted from functional hepatocytes. The media efflux was also used to monitor the presence of drug and metabolic products for PK. When compounds are included in the microfluidic media, hepatocytes are exposed to the compound and often biotransform them to a chemically distinct product. Mass spectrometry is a specific and sensitive method to observe these changes. Typically, ca. 15 microliters of media is collected for each biochemical and mass spec measurement (flow rate=5 microliters per hour.)
Troglitazone (28 or 180 μM), or caffeine (600 μM, negative control) was introduced into the microfluidic device for 0-28 days.

[5] = tested on: hepatocyte sentinel cells; test: Statistical validation of biosensors in hepatocyte sentinel cells in microplates; type: cell-based, human; conditions: 50 μM
From the text: A panel of biosensors was delivered through lentiviral transduction in multiple fluorescent protein colors initially validated in microplates for an acute response. An SSMD level of ≥2 is considered a statistically valid response.

[6] = tested on: hepatocytes in SALA model (bile canalicular efflux, BSEP); test: Bile efflux (CMFDA fluorescence) in SALA model; type: cell-based, human; conditions: 50 μM
LX-2 stellate cells = conditions: 30 nM
From the text: Day 21 Immunofluorescence images of a SALA liver vehicle treated 21 days, fixed, and reacted against α-Human Collagen type ½ is provided in panel C. […] Nuclei are false colored blue in all images.

[7] = tested on: hepatocytes in SALA model (Cyp3A4 signature metabolite); test: LC-MS of efflux media: metabolic clearance and metabolite production in SALA model; conditions: 5 μM testosterone in influx media; efflux collected over 24 hr at 5 μl/hr; day 10
From the text: as §1

[8] = tested on: hepatocytes in SALA model; test: Propidium iodide uptake of hepatocytes in SALA model; type: cell-based, human; conditions: 200 μM trovafloxacin co-treated with 1 ug/ml LPS, compared to vehicle
From the text: (§2) Correlation of propidium iodide (PI) uptake with cell area of hepatocytes is illustrated in FIG. 11. The cytochrome C biosensor is used to measure hepatocyte area in order to perform real-time measurements of apoptosis.

[9] = tested on: hepatocytes in SALA model; test: Hepatocyte area measured in real-time with cytochrome C biosensor in SALA model; type: cell-based, human
From the text: as §2

U937 cells = test: TNF-alpha release from LPS activated U937 cells; type: cell-based, human

Compound: CCc1nn(CCCN2CCN(c3cccc(Cl)c3)CC2)c(=O)n1CCOc1ccccc1 [Nefazodone]
- ROS generation [1]: increase of ROS generation
- mitochondrial function [1]: decrease in mitochondrial function
- oxidative stress in hepatocytes [1]: induces oxidative stress
- MOT (wrapped cells) (liver [2]): Mitochondrial and ROS and Bile Efflux
- Cmax [3]: 900 nM
- liver injury incidents/million prescriptions (liver [4]): 105 incidents/million incidents/million prescriptions
- Human/Animal Toxicology (findings in words, wrapped cells) (liver [4]): Acute hepatitis; also recorded: Centrilobular (zone 3); also recorded: Cholestasis, apoptosis

Compound: CS(=O)(=O)Nc1ccc([N+](=O)[O-])cc1Oc1ccccc1 [Nimesulide]
- LDH leakage, time of peak (SALA model cells; 210 μM): ~5 days

Compound: O=c1n(CCCN2CCN(c3cccc(Cl)c3)CC2)nc2ccccn12 [Trazodone]
- MOT (wrapped cells) (liver [2]): No known
- Cmax [3]: 5000 nM
- liver injury incidents/million prescriptions (liver [4]): 0.21 incidents/million prescriptions
- Human/Animal Toxicology (findings in words, wrapped cells) (liver [4]): extremely rare liver; also recorded: Mild ↑transaminases,

Compound: Cc1c(C)c2c(c(C)c1O)CCC(C)(COc1ccc(CC3SC(=O)NC3=O)cc1)O2 (stereo not drawn) [Troglitazone]
- SSMD, Bile canalicular efflux (CMFDA) [5]: 11
- MOT (wrapped cells) (liver [2]): Mitochondrial; also recorded: BSEP inhibitor
- Cmax [3]: 1800 nM
- CMFDA dye uptake and efflux in hepatocytes ([6]; 10 day treatment, monitored 60 minutes, compared to vehicle): slower uptake and inhibition of efflux
- hepatocyte retention of dye ([6]; at 60 minutes): increased hepatocyte retention of dye
- release of LDH, time of peak loss (SALA model cells; 28 μM): ~13 days
- release of LDH, time of peak loss (SALA model cells; 180 μM): ~4 days
- liver injury incidents/million prescriptions (liver [4]): Up to 1000 incidents/million prescriptions
- Human/Animal Toxicology (findings in words, wrapped cells) (liver [4]): Moderate to severe; also recorded: Variable necrosis,; also recorded: cholestasis,; also recorded: inflammatory

Compound: CN(Cc1cnc2nc(N)nc(N)c2n1)c1ccc(C(=O)N[C@@H](CCC(=O)O)C(=O)O)cc1 [methotrexate]
- expression of collagen type 1A2 protein in LX-2 stellate cells (LX-2 stellate cells; day 21, relative to vehicle control): increased
- LX-2 stellate cell division, transmigration and accumulation in hepatocyte layer (LX-2 stellate cells; over 21 days, compared with vehicle (1.0% DMSO)): accelerated rate

Compound: C[C@]12CC[C@H]3[C@@H](CCC4=CC(=O)CC[C@@]43C)[C@@H]1CC[C@@H]2O [testosterone]
- testosterone exits unchanged through the device (ratio of mass area under the curves) [7]: 27%

Compound: N[C@@H]1[C@H]2CN(c3nc4c(cc3F)c(=O)c(C(=O)O)cn4-c3ccc(F)cc3F)C[C@@H]12 [trovafloxacin]
- propidium iodide (PI) uptake [8]: increased PI uptake
- propidium iodide (PI) uptake ([8]; listed as trovofloxacin): increase in propidium iodide uptake
- hepatocyte area ([9]; 200 μM trovafloxacin alone, day 7): decrease in hepatocyte area
- cell area of hepatocytes ([9]; 200 μM trovafloxacin co-treated with 1 ug/ml LPS, compared to vehicle (1% DMSO)): reduction in cell area
- hepatocyte area ([9]; 200 μM trovafloxacin plus 1 ug/ml LPS, day 5): decrease in hepatocyte area

Compound: Lipopolysaccharide [LPS]
- EC50 of TNF-alpha release (U937 cells): 0.7 µg/mL
